Data from patent publication US12065430B2, “Indazole compound or salt thereof” (TAIHO PHARMACEUTICAL CO., LTD., priority 2018, dated 2024).

Tests used:
[1] = target: G12C K-Ras4B (1-169) (Homo sapiens (Human), UniProt P01116, G12C); experiment: Test of compounds on whether to bind to KRASG12C (LC-MS compound binding rate); conditions: final compound concentration of 2 μM, 1 μM protein, 25° C. for 2 hours
Method in brief: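 K-Ras4B (1-169) WT and G12C (1 μM each, mixed) in 1×TBS, 0.1 mM TCEP incubated with compound (final 2 μM) 2 h at 25° C; quenched with 0.2% formic acid. Intact-protein LC-MS (ESI+, deconvoluted); binding rate = adduct signal/(adduct + unbound signal), giving selectivity over WT.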

[2] = system: NCI-H358 cells; experiment: Growth inhibition activity on KRAS-G12C mutant cell line (NCI-H358) (in vitro, CellTiter-Glo2.0); type: cell-based; conditions: Homo sapiens, NCI-H358, 72 h, 3-day culture in the presence of the compound
Procedure: NCI-H358 cells (ATCC, Cat #: CRL-5807), which are a KRAS-G12C mutant human lung cancer cell line, were suspended in a 10% fetal bovine serum-containing RPMI1640 medium (manufactured by Fujifilm Wako Pure Chemical Corporation.). The cell suspension was seeded into each well of a 384-well flat-bottom microplate and cultured in an incubator containing 5% CO2 gas at 37° C. for 1 day. The test compound was dissolved in DMSO, and diluted with DMSO to give a concentration 500 times the final concentration. The solution of the test compound in DMSO was diluted with the medium used for suspending cells and added to each well of the cell-culture plate to give a DMSO final concentration of 0.2%, followed by culture in an incubator containing 5% CO2 gas at 37° C. for another 3 days. The cell count after 3-day culture in the presence of the compound was measured using CellTiter-Glo2.0 (manufactured by Promega Corporation) in accordance with the protocol recommended by Promega Corporation. The growth inhibition rate was calculated from the following equation, and the concentration of the test compound at which 50% inhibition was achieved (IC50 (nM)) was determined. […] Growth Inhibition Rate (%)=(C−T)/(C)×100 • T: the emission intensity in a well into which a test compound was added. • C: the emission intensity in a well into which a test compound was not added.

Chain of G12C K-Ras4B (1-169) (P01116 other isoform, or with tags, fused parts or gaps G12C): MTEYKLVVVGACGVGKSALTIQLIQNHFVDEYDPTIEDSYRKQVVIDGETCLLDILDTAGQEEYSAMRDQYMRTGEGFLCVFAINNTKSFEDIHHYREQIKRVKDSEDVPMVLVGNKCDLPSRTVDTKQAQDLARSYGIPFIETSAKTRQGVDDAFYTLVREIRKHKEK

SMILES | IC50 [2] [nM] | binding rate for G12C K-Ras4B (1-169) [1]
C=CC(=O)N1CC(NC(=O)c2c(C)nc(CNc3n[nH]c4cc(Cl)c(C(C)(C)C)cc34)n2C)C1 [Example 3, N-(1-acryloylazetidin-3-yl)-2-(((5-(tert-butyl)-6-chloro-1H-indazol-3-yl)amino)methyl)-1,4-dimethyl-1H-imidazole-5-carboxamide] | 114 | A (a binding rate of 80% or more is rated “A,”)
C=CC(=O)N1CC(NC(=O)c2c(C)nc(CNc3n[nH]c4cc(Cl)c(C(C)(C)C)cc34)n2C(C)C)C1 [Example 13, N-(1-acryloylazetidin-3-yl)-2-(((5-(tert-butyl)-6-chloro-1H-indazol-3-yl)amino)methyl)-1-isopropyl-4-methyl-1H-imidazole-5-carboxamide] | 135 | A (a binding rate of 80% or more is rated “A,”)
C=CC(=O)N1CC(NC(=O)c2c(C(F)F)nc(CNc3n[nH]c4cc(Cl)c(C(C)(C)C)cc34)n2C(C)C)C1 [Example 33, N-(1-acryloylazetidin-3-yl)-2-(((5-(tert-butyl)-6-chloro-1H-indazol-3-yl)amino)methyl)-4-(difluoromethyl)-1-isopropyl-1H-imidazole-5-carboxamide] | 153 | A (a binding rate of 80% or more is rated “A,”)
C=CC(=O)N1CC(NC(=O)c2c(Cl)nc(CNc3n[nH]c4cc(Cl)c(C(C)(C)C)cc34)n2C(C)C)C1 [Example 35, N-(1-acryloylazetidin-3-yl)-2-(((5-(tert-butyl)-6-chloro-1H-indazol-3-yl)amino)methyl)-4-chloro-1-isopropyl-1H-imidazole-5-carboxamide] | 67 | B (a binding rate of 60% or more and less than 80% is rated “B,”)
C=CC(=O)N1C[C@H](NC(=O)c2c(C)nc(CNc3n[nH]c4cc(Cl)c(C(C)(C)C)cc34)n2C)[C@@H](F)C1 [Example 64, N-((3S,4S)-1-acryloyl-4-fluoropyrrolidin-3-yl)-2-(((5-(tert-butyl)-6-chloro-1H-indazol-3-yl)amino)methyl)-1,4-dimethyl-1H-imidazole-5-carboxamide] | 241 | A (a binding rate of 80% or more is rated “A,”)
C=CC(=O)N1C[C@H](NC(=O)c2c(F)nc(CNc3n[nH]c4cc(Cl)c(C(C)(C)C)cc34)n2C)[C@@H](F)C1 [Example 75, N-((3S,4S)-1-acryloyl-4-fluoropyrrolidin-3-yl)-2-(((5-(tert-butyl)-6-chloro-1H-indazol-3-yl)amino)methyl)-4-fluoro-1-methyl-1H-imidazole-5-carboxamide] | 142 | A (a binding rate of 80% or more is rated “A,”)
C=CC(=O)N1C[C@H](NC(=O)c2c(Cl)nc(CNc3n[nH]c4cc(Cl)c(C(C)(C)C)cc34)n2C)[C@@H](F)C1 [Example 76, N-((3S,4S)-1-acryloyl-4-fluoropyrrolidin-3-yl)-2-(((5-(tert-butyl)-6-chloro-1H-indazol-3-yl)amino)methyl)-4-chloro-1-methyl-1H-imidazole-5-carboxamide] | 232 | A (a binding rate of 80% or more is rated “A,”)
C=CC(=O)N1C[C@@H](C)[C@@H](NC(=O)c2c(Cl)nc(CNc3n[nH]c4cc(Cl)c(C(C)(C)C)cc34)n2C)C1 [Example 78, N-((3R,4R)-1-acryloyl-4-methylpyrrolidin-3-yl)-2-(((5-(tert-butyl)-6-chloro-1H-indazol-3-yl)amino)methyl)-4-chloro-1-methyl-1H-imidazole-5-carboxamide] | 350 | B (a binding rate of 60% or more and less than 80% is rated “B,”)
C=CC(=O)N1CC(NC(=O)c2c(C(F)F)nc(CNc3n[nH]c4cc(Cl)c(C(C)(C)C)cc34)n2C2CCN(C(C)C)C2)C1.O=CO (stereo not shown) [Example 93, N-(1-acryloylazetidin-3-yl)-2-(((5-(tert-butyl)-6-chloro-1H-indazol-3-yl)amino)methyl)-4-(difluoromethyl)-1-(1-isopropylpyrrolidin-3-yl)-1H-imidazole-5-carboxamide formate] | 40 | A (a binding rate of 80% or more is rated “A,”)
C=CC(=O)N1CC(NC(=O)c2c(-c3ccccc3)nc(CNc3n[nH]c4cc(Cl)c(C(C)(C)C)cc34)n2C)C1 [Reference Example 3, N-(1-acryloylazetidin-3-yl)-2-(((5-(tert-butyl)-6-chloro-1H-indazol-3-yl)amino)methyl)-1-methyl-4-phenyl-1H-imidazole-5-carboxamide, reference compound] | – | E (a binding rate of less than 20% is rated “E.”)

The next lines start with results.

IC50 [2] [nM] | SMILES | binding rate for G12C K-Ras4B (1-169) [1]
34 | C=CC(=O)N1CC(NC(=O)c2c(Cl)nc(CNc3n[nH]c4cc(Cl)c(C(C)(C)C)cc34)n2C)C1 [Example 29, N-(1-acryloylazetidin-3-yl)-2-(((5-(tert-butyl)-6-chloro-1H-indazol-3-yl)amino)methyl)-4-chloro-1-methyl-1H-imidazole-5-carboxamide] | B (a binding rate of 60% or more and less than 80% is rated “B,”)
52 | C=CC(=O)N1CC(NC(=O)c2c(Cl)nc(CNc3n[nH]c4cc(Cl)c(C(C)(C)C)cc34)n2[C@H]2CCOC2)C1 [Example 97, (S)—N-(1-acryloylazetidin-3-yl)-2-(((5-(tert-butyl)-6-chloro-1H-indazol-3-yl)amino)methyl)-4-chloro-1-(tetrahydrofuran-3-yl)-1H-imidazole-5-carboxamide] | A (a binding rate of 80% or more is rated “A,”)
54 | C=CC(=O)N1CC(NC(=O)c2c(Cl)nc(CNc3n[nH]c4cc(Cl)c(C(C)(C)C)cc34)n2C2CCOCC2)C1 [Example 101, N-(1-acryloylazetidin-3-yl)-2-(((5-(tert-butyl)-6-chloro-1H-indazol-3-yl)amino)methyl)-4-chloro-1-(tetrahydro-2H-pyran-4-yl)-1H-imidazole-5-carboxamide] | A (a binding rate of 80% or more is rated “A,”)
69 | C=CC(=O)N1CC(NC(=O)c2c(Cl)nc(CNc3n[nH]c4cc(Cl)c(C(C)(C)C)cc34)n2[C@@H]2CCOC2)C1 [Example 102, (R)—N-(1-acryloylazetidin-3-yl)-2-(((5-(tert-butyl)-6-chloro-1H-indazol-3-yl)amino)methyl)-4-chloro-1-(tetrahydrofuran-3-yl)-1H-imidazole-5-carboxamide] | A (a binding rate of 80% or more is rated “A,”)
29 | C=CC(=O)N1CC(NC(=O)c2c(Cl)nc(CNc3n[nH]c4cc(Cl)c(C(C)(C)C)cc34)n2C2CCN(C)CC2)C1 [Example 103, N-(1-acryloylazetidin-3-yl)-2-(((5-(tert-butyl)-6-chloro-1H-indazol-3-yl)amino)methyl)-4-chloro-1-(1-methylpiperidin-4-yl)-1H-imidazole-5-carboxamide] | A (a binding rate of 80% or more is rated “A,”)
91 | C=CC(=O)N1CC(NC(=O)c2c(Cl)nc(CNc3n[nH]c4cc(Cl)c(C(C)(C)C)cc34)n2C2CCCOC2)C1 (stereo not shown) [Example 104, N-(1-acryloylazetidin-3-yl)-2-(((5-(tert-butyl)-6-chloro-1H-indazol-3-yl)amino)methyl)-4-chloro-1-(tetrahydro-2H-pyran-3-yl)-1H-imidazole-5-carboxamide] | A (a binding rate of 80% or more is rated “A,”)
76 | C=CC(=O)N1CC(NC(=O)c2c(Cl)nc(CNc3n[nH]c4cc(Cl)c(C(C)(C)C)cc34)n2C2CCCC2)C1 [Example 105, N-(1-acryloylazetidin-3-yl)-2-(((5-(tert-butyl)-6-chloro-1H-indazol-3-yl)amino)methyl)-4-chloro-1-cyclopentyl-1H-imidazole-5-carboxamide] | A (a binding rate of 80% or more is rated “A,”)
42 | C=CC(=O)N1CC(NC(=O)c2c(Cl)nc(CNc3n[nH]c4cc(Cl)c(C(C)(C)C)cc34)n2C2CN(C(=O)OC(C)(C)C)C2)C1 [Example 106, Tert-butyl 3-(5-((1-acryloylazetidin-3-yl)carbamoyl)-2-(((5-(tert-butyl)-6-chloro-1H-indazol-3-yl)amino)methyl)-4-chloro-1H-imidazol-1-yl)azetidine-1-carboxylate] | A (a binding rate of 80% or more is rated “A,”)
78 | C=CC(=O)N1CC(NC(=O)c2c(Cl)nc(CNc3n[nH]c4cc(Cl)c(C(C)(C)C)cc34)n2C2CN(C(C)C)C2)C1 [Example 107, N-(1-acryloylazetidin-3-yl)-2-(((5-(tert-butyl)-6-chloro-1H-indazol-3-yl)amino)methyl)-4-chloro-1-(1-isopropylazetidin-3-yl)-1H-imidazole-5-carboxamide] | A (a binding rate of 80% or more is rated “A,”)
